Patent publication US8765727B2, “Macrocyclic compounds and their use as kinase inhibitors” (Incyte Corporation, priority 2009, dated 2014)
pIC50: −log10 of the molar value. Where a name gives a salt, the structure may show the parent alone. Read-outs that look alike come from different tables or passages of the source.

How the values were obtained:
Format in all cases: biochemical
TYK2 = TYK2 (Homo sapiens (Human), UniProt P29597); test: TYK2 assay (as described by Thompson et al.)
Description: The invention will be described in greater detail by way of specific examples. The following examples are offered for illustrative purposes, and are not intended to limit the invention in any manner. Those of skill in the art will readily recognize a variety of non-critical parameters which can be changed or modified to yield essentially the same results. In some instances where the compounds of the examples were isolated by preparative HPLC in the presence of trifluoroacetic acid (TFA) or other acid, the compound may have been obtained as the corresponding salt. […] Certain compounds described in Tables 1 and in the Example section were tested for inhibitory activity of JAK/ALK targets according to assays such as those described herein or those known in the art [e.g., ALK assays described in WO 04/079326; and TYK2 assays described by James E. Thompson et. al, “Photochemical preparation of a pyridone containing tetracycle: A JAK protein kinase inhibitor,” Bioorganic & Medicinal Chemistry Letters, Volume 12, Issue 8, 22 Apr. 2002, Pages 1219-1223]. […] Some exemplary data of the compounds of the invention are shown in Table 1 in the experimental section.

[1] = target: human JAK3 (a.a. 781-1124) catalytic domain (Homo sapiens (Human), UniProt P52333); test: In vitro JAK kinase assay (HTRF), JAK3; conditions: 3 μM ATP, 500 nM peptide, room temperature 1 hr
human JAK3 (a.a. 781-1124) catalytic domain, sequence (P52333 781-1124): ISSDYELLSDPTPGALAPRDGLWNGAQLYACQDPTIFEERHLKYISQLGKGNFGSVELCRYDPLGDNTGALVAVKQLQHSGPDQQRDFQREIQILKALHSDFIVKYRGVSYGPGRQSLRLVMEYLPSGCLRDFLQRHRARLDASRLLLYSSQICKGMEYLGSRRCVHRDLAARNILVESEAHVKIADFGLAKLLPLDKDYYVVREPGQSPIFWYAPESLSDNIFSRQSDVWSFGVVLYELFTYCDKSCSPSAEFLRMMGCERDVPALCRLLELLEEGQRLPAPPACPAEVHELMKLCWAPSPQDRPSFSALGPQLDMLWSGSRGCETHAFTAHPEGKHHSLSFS
Protocol: (§1) One or more compounds herein were tested for inhibitory activity of JAK targets according to the following in vitro assay described in Park et al., Analytical Biochemistry 1999, 269, 94-104. The catalytic domains of human JAK1 (a.a. 837-1142), JAK2 (a.a. 828-1132) and JAK3 (a.a. 781-1124) with an N-terminal His tag were expressed using baculovirus in insect cells and purified. The catalytic activity of JAK1, JAK2 or JAK3 was assayed by measuring the phosphorylation of a biotinylated peptide. The phosphorylated peptide was detected by homogenous time resolved fluorescence (HTRF). […] The ATP concentration in the reactions was 90 μM for JAK1, 30 μM for JAK2 and 3 μM for JAK3. Reactions were carried out at room temperature for 1 hr and then stopped with 20 μL 45 mM EDTA, 300 nM SA-APC, 6 nM Eu-Py20 in assay buffer (Perkin Elmer, Boston, Mass.). Binding to the Europium labeled antibody took place for 40 minutes and HTRF signal was measured on a Fusion plate reader (Perkin Elmer, Boston, Mass.).

[2] = target: Recombinant Human Anaplastic Lymphoma Kinase (Homo sapiens (Human), UniProt Q9UM73); test: ALK HTRF kinase assay; conditions: 90 μM ATP, 0.25 nM enzyme, 2 hours at 25° C.
Recombinant Human Anaplastic Lymphoma Kinase, sequence (Q9UM73 19-1620): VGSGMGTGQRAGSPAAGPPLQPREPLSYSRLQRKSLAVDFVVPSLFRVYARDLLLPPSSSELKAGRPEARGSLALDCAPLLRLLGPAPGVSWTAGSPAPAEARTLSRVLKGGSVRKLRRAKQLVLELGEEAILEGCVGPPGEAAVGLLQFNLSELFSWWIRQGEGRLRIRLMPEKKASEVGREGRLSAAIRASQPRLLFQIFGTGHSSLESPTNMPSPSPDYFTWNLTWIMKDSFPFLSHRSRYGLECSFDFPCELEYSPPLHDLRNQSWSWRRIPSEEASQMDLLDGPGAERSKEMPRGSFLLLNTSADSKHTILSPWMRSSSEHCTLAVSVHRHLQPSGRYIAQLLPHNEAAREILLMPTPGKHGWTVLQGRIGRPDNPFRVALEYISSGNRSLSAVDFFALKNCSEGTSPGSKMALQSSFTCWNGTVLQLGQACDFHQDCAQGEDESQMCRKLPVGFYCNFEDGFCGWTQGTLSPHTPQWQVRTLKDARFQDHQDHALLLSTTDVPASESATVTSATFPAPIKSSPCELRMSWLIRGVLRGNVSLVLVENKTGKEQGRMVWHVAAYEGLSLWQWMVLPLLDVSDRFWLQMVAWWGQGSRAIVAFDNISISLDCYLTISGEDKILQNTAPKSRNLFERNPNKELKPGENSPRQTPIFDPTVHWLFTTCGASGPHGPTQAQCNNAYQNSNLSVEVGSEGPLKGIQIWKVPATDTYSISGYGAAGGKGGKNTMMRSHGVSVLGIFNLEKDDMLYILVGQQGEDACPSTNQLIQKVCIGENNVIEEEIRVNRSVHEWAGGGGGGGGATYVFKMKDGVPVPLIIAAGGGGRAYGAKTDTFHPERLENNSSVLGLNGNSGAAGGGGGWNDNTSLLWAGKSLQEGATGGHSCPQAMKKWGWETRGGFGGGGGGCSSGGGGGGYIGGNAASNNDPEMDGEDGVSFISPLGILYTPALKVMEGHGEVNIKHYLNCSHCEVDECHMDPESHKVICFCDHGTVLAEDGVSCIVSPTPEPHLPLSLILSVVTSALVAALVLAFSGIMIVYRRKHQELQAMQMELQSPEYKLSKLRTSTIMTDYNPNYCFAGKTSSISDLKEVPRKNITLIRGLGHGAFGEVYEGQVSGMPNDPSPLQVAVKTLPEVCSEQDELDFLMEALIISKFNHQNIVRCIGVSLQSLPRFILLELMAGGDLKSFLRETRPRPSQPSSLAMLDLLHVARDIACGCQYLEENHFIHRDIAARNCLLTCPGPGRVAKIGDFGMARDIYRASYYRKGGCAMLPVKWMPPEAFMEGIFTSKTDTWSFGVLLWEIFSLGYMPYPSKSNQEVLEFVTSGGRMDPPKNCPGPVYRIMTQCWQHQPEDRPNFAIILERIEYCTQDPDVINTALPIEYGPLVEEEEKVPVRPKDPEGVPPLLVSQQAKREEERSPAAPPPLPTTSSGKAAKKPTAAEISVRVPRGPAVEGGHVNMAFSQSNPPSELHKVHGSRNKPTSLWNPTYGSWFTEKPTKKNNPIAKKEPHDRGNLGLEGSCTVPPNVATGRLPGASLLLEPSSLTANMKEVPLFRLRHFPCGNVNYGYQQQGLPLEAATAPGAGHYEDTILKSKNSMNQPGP
Protocol: Materials: Recombinant Human Anaplastic Lymphoma Kinase was purchased from Invitrogen, Carlsbad, Calif. Peptide substrate (Biotin-[…]-amide) was custom synthesized at EZBiolab, Westfield, Ind. Streptavidin conjugated SureLight-Allophycocyania and LANCE Eu-W1024 labeled anti-phosphotyrosine antibody were from Perkin-Elmer, Boston, Mass. Microplates were from Corning Inc., Acton, Mass. All other reagents were from Sigma, St. Louis, Mo.
HTRF kinase assay: 40 μL reactions were run in black 384 well polystyrene plates in assay buffer (50 mM Tris, pH 7.8, 100 mM NaCI, 0.1 mg/mL BSA, 5 mM DTT), containing 0.5 μM Biotinylated peptide substrate, 10 mM MgCl2, 90 μM ATP, and 0.25 nM enzyme for 2 hours at 25° C. Reactions were stopped by addition of 20 μL assay buffer supplemented with an additional 50 mM NaCl, 0.4 mg/mL BSA, 45 mM EDTA, 4.5 nM LANCE Eu-W1024 labeled anti-phosphotyrosine antibody and 200 nM streptavidin conjugated SureLight-allophycocyanin. Plates were read in Fusion α-FP instrument (Perkin-Elmer). The concentrations needed to reach 50% inhibition, the IC50 value, were determined by fitting the assay signal to the following equation using Graphpad Prizm. Signal=Bottom+(Top−Bottom)/(1+10^((Log(IC50)−Log [I])*Hill Slope) Bottom and Top refer to the post and pre-transition baselines, respectively.

[3] = target: human JAK2 (a.a. 828-1132) catalytic domain (Homo sapiens (Human), UniProt O60674); test: In vitro JAK kinase assay (HTRF), JAK2
human JAK2 (a.a. 828-1132) catalytic domain, sequence (O60674 828-1132): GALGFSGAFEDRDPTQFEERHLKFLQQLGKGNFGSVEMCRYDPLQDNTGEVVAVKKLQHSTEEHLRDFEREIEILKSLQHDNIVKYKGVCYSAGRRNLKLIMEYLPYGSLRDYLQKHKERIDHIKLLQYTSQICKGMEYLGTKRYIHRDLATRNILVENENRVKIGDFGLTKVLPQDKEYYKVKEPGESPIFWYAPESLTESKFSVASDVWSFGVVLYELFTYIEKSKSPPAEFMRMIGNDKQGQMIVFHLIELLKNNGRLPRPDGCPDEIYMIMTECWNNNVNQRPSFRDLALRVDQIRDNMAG
Protocol: One or more compounds herein were tested for inhibitory activity of JAK targets according to the following in vitro assay described in Park et al., Analytical Biochemistry 1999, 269, 94-104. The catalytic domains of human JAK1 (a.a. 837-1142), JAK2 (a.a. 828-1132) and JAK3 (a.a. 781-1124) with an N-terminal His tag were expressed using baculovirus in insect cells and purified. The catalytic activity of JAK1, JAK2 or JAK3 was assayed by measuring the phosphorylation of a biotinylated peptide. The phosphorylated peptide was detected by homogenous time resolved fluorescence (HTRF). […] Binding to the Europium labeled antibody took place for 40 minutes and HTRF signal was measured on a Fusion plate reader (Perkin Elmer, Boston, Mass.).

[4] = target: human JAK1 (a.a. 837-1142) catalytic domain (Homo sapiens, UniProt P23458); test: In vitro JAK kinase assay (HTRF), JAK1; conditions: 90 μM ATP, 500 nM peptide, room temperature 1 hr
Protocol: as §1

[5] = 30 μM ATP, 500 nM peptide, room temperature 1 hr

TYK2, sequence (P29597 whole entry, species assumed): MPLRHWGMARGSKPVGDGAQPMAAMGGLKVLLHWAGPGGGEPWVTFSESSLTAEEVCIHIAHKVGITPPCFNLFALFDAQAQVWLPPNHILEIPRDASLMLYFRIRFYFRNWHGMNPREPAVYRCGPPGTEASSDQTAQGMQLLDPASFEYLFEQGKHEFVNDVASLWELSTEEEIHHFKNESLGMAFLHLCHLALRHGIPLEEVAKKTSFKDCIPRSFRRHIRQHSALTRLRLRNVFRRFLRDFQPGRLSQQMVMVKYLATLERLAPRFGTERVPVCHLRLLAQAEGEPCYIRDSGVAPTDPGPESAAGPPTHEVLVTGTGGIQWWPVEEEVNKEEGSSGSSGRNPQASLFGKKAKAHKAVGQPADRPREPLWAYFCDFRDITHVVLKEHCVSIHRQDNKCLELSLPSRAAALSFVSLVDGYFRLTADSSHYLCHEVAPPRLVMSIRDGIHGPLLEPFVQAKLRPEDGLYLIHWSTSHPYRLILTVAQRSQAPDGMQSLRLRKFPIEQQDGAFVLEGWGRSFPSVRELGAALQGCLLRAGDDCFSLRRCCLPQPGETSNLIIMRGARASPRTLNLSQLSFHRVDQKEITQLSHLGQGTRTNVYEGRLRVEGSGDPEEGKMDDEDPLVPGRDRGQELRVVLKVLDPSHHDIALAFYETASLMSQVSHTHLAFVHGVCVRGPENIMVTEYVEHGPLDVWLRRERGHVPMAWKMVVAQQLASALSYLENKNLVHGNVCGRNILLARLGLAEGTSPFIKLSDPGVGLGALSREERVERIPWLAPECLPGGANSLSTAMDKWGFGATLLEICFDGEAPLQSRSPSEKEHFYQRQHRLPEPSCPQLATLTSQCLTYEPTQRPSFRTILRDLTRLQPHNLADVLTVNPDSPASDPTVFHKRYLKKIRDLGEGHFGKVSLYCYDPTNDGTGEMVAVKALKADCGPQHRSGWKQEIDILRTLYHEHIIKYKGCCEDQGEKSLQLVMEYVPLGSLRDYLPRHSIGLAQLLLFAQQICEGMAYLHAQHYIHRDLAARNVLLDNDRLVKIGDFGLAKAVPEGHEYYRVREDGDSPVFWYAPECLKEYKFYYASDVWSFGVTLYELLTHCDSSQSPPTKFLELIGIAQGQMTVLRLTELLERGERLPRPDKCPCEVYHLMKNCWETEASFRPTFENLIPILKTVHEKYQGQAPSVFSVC

pIC50 [3, 5]	SMILES	pIC50 (TYK2)	pIC50 [1]	pIC50 [2]	pIC50 [3]	pIC50 [4]
7.64	Clc1cnc2nc1NCCc1cccc(c1)OCCc1cccc(c1)N2 [Example 9, 6-Chloro-16-oxa-2,4,8,25-tetraazatetracyclo[17.3.1.1(3,7).1(11,15)]pentacosa-1(23),3(25),4,6,11(24),12,14,19,21-nonaene]	7.28	7.26	5.91		7.55
6.93	Clc1cnc2nc1NCCCc1cccc(c1)OCc1cccc(c1)N2 [Example 10, 20-Chloro-9-oxa-2,18,22,23-tetraazatetracyclo[17.3.1.1(3,7).1(10,14)]pentacosa-1(23),3(25),4,6,10(24),11,13,19,21-nonaene]	6.63	6.74	< 6.00		6.91
7.60	Clc1cnc2nc1NCCCc1cccc(c1)OCCc1cccc(c1)N2 [Example 13, 21-Chloro-10-oxa-2,19,23,24-tetraazatetracyclo[18.3.1.1(3,7).1(11,15)]hexacosa-1(24),3(26),4,6,11(25),12,14,20,22-nonaene]	6.97	7.21	< 5.00		7.49
7.04	Clc1cnc2nc1NCc1cc(ccc1Br)OCCCc1cccc(c1)N2 [Example 14, 11-Bromo-6-chloro-15-oxa-2,4,8,25-tetraazatetracyclo[17.3.1.1(3,7).1(10,14)]pentacosa-1(23),3(25),4,6,10(24),11,13,19,21-nonaene]	6.52	7.24	5.09		7.00
8.30	Clc1cnc2nc1NCc1cc(Br)cc(c1)OCCCc1cccc(c1)N2 [Example 16, 12-Bromo-6-chloro-15-oxa-2,4,8,25-tetraazatetracyclo[17.3.1.1(3,7).1(10,14)]pentacosa-1(23),3(25),4,6,10(24),11,13,19,21-nonaene]	6.83		6.55		

More lines, now with the values behind:

SMILES	pIC50 [3, 5]	pIC50 (TYK2)	pIC50 [1]	pIC50 [2]	pIC50 [3]	pIC50 [4]
Clc1cnc2nc1NCc1cccc(c1)OCc1cccc(c1)N2 [Example 1, 6-Chloro-15-oxa-2,4,8,23-tetraazatetracyclo[15.3.1.1(3,7).1(10,14)]tricosa-1(21),3(23),4,6,10(22),11,13,17,19-nonaene trifluoroacetate]		6.40	7.77	< 6.00	7.31	7.29
Clc1cnc2nc1NCc1cccc(c1)OCCc1cccc(c1)N2 [Example 2, 6-Chloro-15-oxa-2,4,8,24-tetraazatetracyclo[16.3.1.1(3,7).1(10,14)]tetracosa-1(22),3(24),4,6,10(23),11,13,18,20-nonaene trifluoroacetate]	8.00	7.46	8.04	5.82		7.89
O=S1(=O)Nc2cccc(c2)CNc2nc(ncc2Cl)Nc2cccc1c2 [Example 3, 6-Chloro-16-thia-2,4,8,15,23-pentaazatetracyclo[15.3.1.1(3,7).1(10,14)]tricosa-1(21),3(23),4,6,10(22),11,13,17,19-nonaene 16,16-dioxide trifluoroacetate]		6.08	6.49	< 5.00		6.52
O=C1Nc2cccc(c2)CNc2nc(ncc2Cl)Nc2cccc1c2 [Example 4, 6-Chloro-2,4,8,15,23-pentaazatetracyclo[15.3.1.1(3,7).1(10,14)]tricosa-1(21),3(23),4,6,10(22),11,13,17,19-nonaen-16-one trifluoroacetate]	6.98	< 6.00	7.68	< 5.00		7.02
Clc1cnc2nc1NCc1cccc(c1)OCCCc1cccc(c1)N2 [Example 5, 6-Chloro-15-oxa-2,4,8,25-tetraazatetracyclo[17.3.1.1(3,7).1(10,14)]pentacosa-1(23),3(25),4,6,10(24),11,13,19,21-nonaene trifluoroacetate]		7.60	8.62	6.15	8.72	8.38
C[C@H]1Nc2nc(ncc2Cl)Nc2cccc(c2)COc2cccc1c2 [Example 6, (9R)-6-Chloro-9-methyl-15-oxa-2,4,8,23-tetraazatetracyclo[15.3.1.1(3,7).1(10,14)]tricosa-1(21),3(23),4,6,10(22),11,13,17,19-nonaene trifluoroacetate]	6.46	< 6.00	6.85	< 5.00		6.46
Clc1cnc2nc1NCc1cccc(c1)OCCOc1cccc(c1)N2 [Example 7, 6-Chloro-15,18-dioxa-2,4,8,25-tetraazatetracyclo[17.3.1.1(3,7).1(10,14)]pentacosa-1(23),3(25),4,6,10(24),11,13,19,21-nonaene trifluoroacetate]	8.08	7.37	8.19	5.69		7.80
Clc1cnc2nc1NCCc1cccc(c1)OCc1cccc(c1)N2 [Example 8, 19-Chloro-9-oxa-2,17,21,22-tetraazatetracyclo[16.3.1.1(3,7).1(10,14)]tetracosa-1(22),3(24),4,6,10(23),11,13,18,20-nonaene]		6.36	6.52	< 5.00		6.22
C[C@@H]1Nc2nc(ncc2Cl)Nc2cccc(c2)COc2cccc1c2 [Example 11, (9S)-6-Chloro-9-methyl-15-oxa-2,4,8,23-tetraazatetracyclo[15.3.1.1(3,7).1(10,14)]tricosa-1(21),3(23),4,6,10(22),11,13,17,19-nonaene trifluoroacetate]	< 6.00	< 6.00	< 6.00	< 5.00		< 6.00
Clc1cnc2nc1NCCc1cccc(c1)OCCCc1cccc(c1)N2 [Example 12, 6-Chloro-16-oxa-2,4,8,26-tetraazatetracyclo[18.3.1.1(3,7).1(11,15)]hexacosa-1(24),3(26),4,6,11(25),12,14,20,22-nonaene]		6.40	6.50	< 5.00		6.52
Clc1cnc2nc1NCc1cc(ccc1-c1ccccc1)OCCCc1cccc(c1)N2 [Example 15, 6-Chloro-11-phenyl-15-oxa-2,4,8,25-tetraazatetracyclo[17.3.1.1(3,7).1(10,14)]pentacosa-1(23),3(25),4,6,10(24),11,13,19,21-nonaene]	7.39	6.40	7.51	< 6.00		7.09
